From patent publication US10294202B2, “Pyrrolidinones as herbicides” (FMC Corporation, priority 2013, dated 2019)

Columns and labels:
[1] = test system: rice; assay: Test C flooded paddy test; type: in vivo, Oryza sativa; conditions: Flood
How it was run: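 2-leaf stage; flood 3 cm over soil; compound into paddy water; depth held; greenhouse 13–15 d; visual % control vs untreated (0 = none, 100 = complete); "-" = not tested.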

[2] = test system: velvetleaf; assay: Test C pre-/postemergence herbicide test; type: in vivo, Abutilon theophrasti
How it was run: (§1)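 Visual rating, 0 (no effect) to 100 (complete control), versus untreated controls after 13 to 15 days in the greenhouse. Pre: seeds in loam/sand, sprayed at planting. Post: 1- to 4-leaf plants (2 to 18 cm) in peat-based mix. Compounds in non-phytotoxic solvent plus surfactant.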

[3] = test system: oat, wild; assay: Test C pre-/postemergence herbicide test; type: in vivo, Avena fatua
How it was run: as §1

[4] = test system: ryegrass, Italian; assay: Test C pre-/postemergence herbicide test; type: in vivo, Lolium multiflorum
How it was run: as §1

[5] = test system: giant foxtail; assay: Test A pre-/postemergence herbicide test; type: in vivo, Setaria faberii
How it was run: (§2)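 Seeds sown in loam soil/sand blend received a preemergence directed soil spray of test chemical in non-phytotoxic solvent with surfactant; postemergence plants (2–10 cm, one- to two-leaf stage) were sprayed with the same formulation. After about 10 days in greenhouse, injury was rated visually versus untreated controls, 0 (no effect) to 100 (complete control).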

[6] = test system: ragweed; assay: Test C pre-/postemergence herbicide test; type: in vivo, Ambrosia elatior
How it was run: as §1

[7] = test system: kochia; assay: Test A pre-/postemergence herbicide test; type: in vivo, Kochia scoparia
How it was run: as §2

[8] = test system: blackgrass; assay: Test A postemergence herbicide test; type: in vivo, Alopecurus myosuroides
How it was run: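 Potted in loam soil/sand blend; postemergence application at 1–2 leaf stage (2–10 cm). Greenhouse ~10 d. Visual injury vs untreated, 0–100 scale; 100 = complete control.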

[9] = test system: ragweed; assay: Test A pre-/postemergence herbicide test; type: in vivo, Ambrosia elatior
How it was run: as §2

[10] = Preemergence, 62 g ai/ha, scale 0 to 100
[11] = Preemergence, 125 g ai/ha, scale 0 to 100 (0 no effect, 100 complete control)
[12] = Postemergence, 500 g ai/ha, 0 to 100 scale (0 no effect, 100 complete control)
[13] = Postemergence, 31 g ai/ha, scale 0 to 100 (0 no effect, 100 complete control)
[14] = Postemergence, 62 g ai/ha, scale 0 (no effect) to 100 (complete control)
[15] = Postemergence, 125 g ai/ha, scale 0 to 100 (0 no effect, 100 complete control)
[16] = Postemergence, 250 g ai/ha, scale 0 to 100 (0 no effect, 100 complete control)
[17] = Preemergence, 62 g ai/ha, scale 0 to 100 (0 no effect, 100 complete control)
[18] = Preemergence, 125 g ai/ha, scale 0 to 100
[19] = Postemergence, 125 g ai/ha, visual rating on 0 to 100 scale (0 no effect, 100 complete control), approx. 10 days
[20] = Preemergence, 125 g ai/ha, 0 to 100 scale where 0 is no effect and 100 is complete control
[21] = Preemergence, 500 g ai/ha, visual rating on 0 to 100 scale (0 no effect, 100 complete control)
[22] = 125 g ai/ha, visual rating on 0 to 100 scale (0 no effect, 100 complete control), approx. 10 days
[23] = 500 g ai/ha, 0 to 100 scale (0 no effect, 100 complete control)

O=C1NCC(c2ccc(F)cc2)C1C(=O)Nc1ccccc1F (racemic) [Compound 16]
Plant response rating, Rice ([1]; 31 g ai/ha, scale of 0 to 100 where 0 is no effect and 100 is complete control, 13 to 15 days): 0
Plant response rating, Rice ([1]; 62 g ai/ha, scale of 0 to 100 where 0 is no effect and 100 is complete control, 13 to 15 days): 0
Plant response rating, Rice ([1]; 125 g ai/ha, scale of 0 to 100 where 0 is no effect and 100 is complete control, 13 to 15 days): 0
Plant response rating, Rice ([1]; 250 g ai/ha, scale 0 to 100): 0
Plant response rating, Velvetleaf [2, 10]: 0
Plant response rating, Velvetleaf [2, 11]: 0
Plant response rating, Oat, Wild [3, 10]: 5
Plant response rating, Oat, Wild [3, 11]: 15
Plant response rating, Ryegrass, Italian [4, 10]: 0
Plant response rating, Foxtail, Giant ([5]; Postemergence, 125 g ai/ha, 0 to 100 scale, 0 no effect, 100 complete control): 60
Plant response rating, Foxtail, Giant [5, 12]: 90
Foxtail, Giant plant response rating ([5]; Preemergence, 125 g ai/ha, visual rating on 0 to 100 scale (0 no effect, 100 complete control)): 90
Plant response rating, Foxtail, Giant ([5]; preemergence, 500 g ai/ha, 0 to 100 scale): 90
Plant response rating, Ragweed [6, 10]: 0
Plant response rating, Ragweed [6, 11]: 0

O=C1NCC(c2cccc(Br)c2)C1C(=O)Nc1cccc(F)c1F (centres unmarked) [Compound 309]
Plant response rating, Velvetleaf [2, 13]: 5
Plant response rating, Velvetleaf [2, 14]: 5
Plant response rating, Velvetleaf [2, 15]: 5
Plant response rating, Velvetleaf [2, 16]: 15
Velvetleaf plant response rating [2, 17]: 0
Plant response rating, Velvetleaf [2, 18]: 0
Plant response rating (scale of 0 to 100), Velvetleaf ([2]; Preemergence, 250 g ai/ha): 15
Plant response rating, Oat, Wild [3, 13]: 0
Plant response rating, Oat, Wild [3, 14]: 0
Plant response rating, Oat, Wild [3, 15]: 0
Plant response rating, Oat, Wild [3, 16]: 0
Plant response rating, Ryegrass, Italian [4, 13]: 0
Plant response rating, Ryegrass, Italian [4, 14]: 0
Plant response rating, Ryegrass, Italian [4, 15]: 0
Plant response rating, Ryegrass, Italian [4, 16]: 5
Ryegrass, Italian plant response rating [4, 17]: 0
Plant response rating, Ryegrass, Italian [4, 18]: 0
Plant response rating (scale of 0 to 100), Ryegrass, Italian ([4]; Preemergence, 250 g ai/ha): 10
Plant response rating, Kochia [7, 19]: 0
Plant response rating, Kochia [7, 12]: 0
Plant response rating, Kochia [7, 20]: 0
Kochia plant response rating [7, 21]: 0
Plant response rating, Blackgrass [8, 22]: 60
Plant response rating, Blackgrass [8, 23]: 70
Plant response rating, Ragweed [9, 19]: 0
Plant response rating, Ragweed [9, 12]: 0
Plant response rating, Ragweed [9, 20]: 0
Plant response rating, Foxtail, Giant [5, 19]: 80
Plant response rating, Foxtail, Giant [5, 12]: 90
Plant response rating, Foxtail, Giant [5, 20]: 90
Foxtail, Giant plant response rating [5, 21]: 90
Plant response rating, Ragweed [6, 13]: 0
Plant response rating, Ragweed [6, 14]: 0
Plant response rating, Ragweed [6, 15]: 35
Plant response rating, Ragweed [6, 16]: 40
Ragweed plant response rating [6, 17]: 10
Plant response rating, Ragweed [6, 18]: 25
Plant response rating (scale of 0 to 100), Ragweed ([6]; Preemergence, 250 g ai/ha): 65

O=C1NCC(c2cccc(C(F)(F)F)c2)C1C(=O)Nc1ccc(F)c(F)c1F (centres unmarked) [Compound 315]
Plant response rating, Velvetleaf [2, 13]: 10
Plant response rating, Velvetleaf [2, 14]: 25
Plant response rating, Velvetleaf [2, 15]: 30
Plant response rating, Velvetleaf [2, 16]: 55
Velvetleaf plant response rating [2, 17]: 30
Plant response rating, Velvetleaf [2, 18]: 40
Plant response rating (scale of 0 to 100), Velvetleaf ([2]; Preemergence, 250 g ai/ha): 50
Plant response rating, Oat, Wild [3, 13]: 0
Plant response rating, Oat, Wild [3, 14]: 0
Plant response rating, Oat, Wild [3, 15]: 0
Plant response rating, Oat, Wild [3, 16]: 0
Plant response rating, Ryegrass, Italian [4, 13]: 0
Plant response rating, Ryegrass, Italian [4, 14]: 5
Plant response rating, Ryegrass, Italian [4, 15]: 15
Plant response rating, Ryegrass, Italian [4, 16]: 45
Ryegrass, Italian plant response rating [4, 17]: 50
Plant response rating, Ryegrass, Italian [4, 18]: 50
Plant response rating (scale of 0 to 100), Ryegrass, Italian ([4]; Preemergence, 250 g ai/ha): 50
Plant response rating, Kochia [7, 19]: 50
Plant response rating, Kochia [7, 12]: 70
Plant response rating, Kochia [7, 20]: 40
Kochia plant response rating [7, 21]: 60
Plant response rating, Blackgrass [8, 22]: 40
Plant response rating, Blackgrass [8, 23]: 50
Plant response rating, Ragweed [9, 19]: 20
Plant response rating, Ragweed [9, 12]: 40
Plant response rating, Ragweed [9, 20]: 20
Ragweed plant response rating [9, 21]: 30
Plant response rating, Foxtail, Giant [5, 19]: 90
Plant response rating, Foxtail, Giant [5, 12]: 90
Plant response rating, Foxtail, Giant [5, 20]: 90
Foxtail, Giant plant response rating [5, 21]: 90
Plant response rating, Ragweed [6, 13]: 0
Plant response rating, Ragweed [6, 14]: 20
Plant response rating, Ragweed [6, 15]: 65
Plant response rating, Ragweed [6, 16]: 70
Ragweed plant response rating [6, 17]: 20
Plant response rating, Ragweed [6, 18]: 50
Plant response rating (scale of 0 to 100), Ragweed ([6]; Preemergence, 250 g ai/ha): 80

O=C1NCC(c2cccc(C(F)(F)F)c2)C1C(=O)Nc1cccc(Cl)c1F (centres unmarked) [Compound 316]
Plant response rating, Velvetleaf [2, 13]: 0
Plant response rating, Velvetleaf [2, 14]: 0
Plant response rating, Velvetleaf [2, 15]: 45
Plant response rating, Velvetleaf [2, 16]: 35
Velvetleaf plant response rating [2, 17]: 10
Plant response rating, Velvetleaf [2, 18]: 10
Plant response rating, Oat, Wild [3, 13]: 0
Plant response rating, Oat, Wild [3, 14]: 0
Plant response rating, Oat, Wild [3, 15]: 5
Plant response rating, Oat, Wild [3, 16]: 30
Plant response rating, Ryegrass, Italian [4, 13]: 0
Plant response rating, Ryegrass, Italian [4, 14]: 0
Plant response rating, Ryegrass, Italian [4, 15]: 0
Plant response rating, Ryegrass, Italian [4, 16]: 5
Ryegrass, Italian plant response rating [4, 17]: 0
Plant response rating, Ryegrass, Italian [4, 18]: 10
Plant response rating, Kochia [7, 19]: 30
Plant response rating, Kochia [7, 12]: 40
Plant response rating, Kochia [7, 20]: 0
Kochia plant response rating [7, 21]: 30
Plant response rating, Blackgrass [8, 22]: 30
Plant response rating, Blackgrass [8, 23]: 40
Plant response rating, Ragweed [9, 19]: 20
Plant response rating, Ragweed [9, 12]: 30
Plant response rating, Ragweed [9, 20]: 20
Ragweed plant response rating [9, 21]: 30
Plant response rating, Foxtail, Giant [5, 19]: 90
Plant response rating, Foxtail, Giant [5, 12]: 90
Plant response rating, Foxtail, Giant [5, 20]: 90
Foxtail, Giant plant response rating [5, 21]: 90
Plant response rating, Ragweed [6, 13]: 45
Plant response rating, Ragweed [6, 14]: 0
Plant response rating, Ragweed [6, 15]: 35
Plant response rating, Ragweed [6, 16]: 65
Ragweed plant response rating [6, 17]: 0
Plant response rating, Ragweed [6, 18]: 10

O=C1NCC(c2cccc(OC(F)F)c2)C1C(=O)Nc1ccc(F)c(F)c1F (centres unmarked) [Compound 325]
Plant response rating, Velvetleaf [2, 13]: 0
Plant response rating, Velvetleaf [2, 14]: 15
Plant response rating, Velvetleaf [2, 15]: 20
Plant response rating, Velvetleaf [2, 16]: 40
Velvetleaf plant response rating [2, 17]: 35
Plant response rating, Velvetleaf [2, 18]: 55
Plant response rating, Oat, Wild [3, 13]: 0
Plant response rating, Oat, Wild [3, 14]: 0
Plant response rating, Oat, Wild [3, 15]: 5
Plant response rating, Oat, Wild [3, 16]: 15
Plant response rating, Ryegrass, Italian [4, 13]: 0
Plant response rating, Ryegrass, Italian [4, 14]: 0
Plant response rating, Ryegrass, Italian [4, 15]: 0
Plant response rating, Ryegrass, Italian [4, 16]: 30
Ryegrass, Italian plant response rating [4, 17]: 40
Plant response rating, Ryegrass, Italian [4, 18]: 50
Plant response rating, Kochia [7, 19]: 60
Plant response rating, Kochia [7, 12]: 80
Plant response rating, Kochia [7, 20]: 70
Kochia plant response rating [7, 21]: 80
Plant response rating, Blackgrass [8, 22]: 50
Plant response rating, Blackgrass [8, 23]: 50
Plant response rating, Ragweed [9, 19]: 20
Plant response rating, Ragweed [9, 12]: 60
Plant response rating, Ragweed [9, 20]: 30
Ragweed plant response rating [9, 21]: 50
Plant response rating, Foxtail, Giant [5, 19]: 90
Plant response rating, Foxtail, Giant [5, 12]: 90
Plant response rating, Foxtail, Giant [5, 20]: 90
Foxtail, Giant plant response rating [5, 21]: 90
Plant response rating, Ragweed [6, 13]: 10
Plant response rating, Ragweed [6, 14]: 10
Plant response rating, Ragweed [6, 15]: 25
Plant response rating, Ragweed [6, 16]: 35
Ragweed plant response rating [6, 17]: 60
Plant response rating, Ragweed [6, 18]: 80
